Measurements from patent US11565005B2, “Dota-hapten compositions for anti-dota/anti-tumor antigen bispecific antibody pretargeted radioimmunotherapy” (MEMORIAL SLOAN KETTERING CANCER CENTER, priority 2017, dated 2023).

Experiments:
[1] = test system: HER2-expressing BT-474 xenografts; assay: Ex vivo biodistribution of BsAb/hapten complex or hapten alone in BT-474 tumor-bearing mice; set-up: species or system athymic nude mice; conditions: 4 h after injection
Protocol: The ^225Ac-Proteus-DOTA haptens were injected intravenously via the lateral tail vein and euthanized 4 hours later for organ collection and radioactivity assessment. Asterisk (*) indicates levels below the limit of detection. Two groups of nude mice with subcutaneous BT474 tumors (3 mice each) were treated with either: [^225Ac Proteus-DOTA] only (0.51 nmol/mouse; ˜30 nCi of ^225Ac/mouse) or PD10-purified [anti-HER2-C825/[^225Ac Proteus-DOTA] complex (estimate 1.79 nmol of ^225Ac Proteus-DOTA/mouse, 1.0 nmol of antibody/mouse; 100 nCi ^225Ac/mouse), and sacrificed 4 h post-injection for ex vivo biodistribution assay. The tissue samples were read in the gamma counter the following day at equilibrium.
Biodistribution Experiments.
To determine whether isolated BsAb/[^225Ac]Proteus-DOTA complexes could target tumors in vivo, a biodistribution assay was conducted after SEC purification with two groups of athymic nude mice (n=3) bearing subcutaneous HER2-expressing BT-474 xenografts. […]

[2] = Biodistribution of [^225Ac]Proteus-DOTA alone in tumor-free nude mice; format: in vivo; conditions: hapten alone, 1 h p.i.
Source text: Carcass radioactivity was not collected during this study.

[3] = test system: anti-HER2-C825; assay: In vitro mixing with DOTA-PRIT BsAb followed by size-exclusion chromatography; format: binding
Protocol: In vitro Mixing of [^225Ac]Proteus-DOTA with a DOTA-PRIT BsAb, followed by In vivo Targeting Studies. […] After one week of storage of [^225Ac]Proteus-DOTA at room temperature, an in vitro mixing experiment consisting of mixing 145 μL of 6.91 mg/mL of anti-HER2-C825 (4.8 nmol of BsAb or 9.6 nmol of C825) and 90 μL of [^225Ac]Proteus-DOTA (488 nCi/8.64 nmol) for 1 h at room temperature (final volume 235 μL). As a control, 1 mg of trastuzumab (6.67 nmol) with also mixed in vitro with 90 μL of [^225Ac]Proteus-DOTA (468 nCi/8.64 nmol) in the same manner as the anti-HER2-C825. These two solutions were run separately on PD-10 size-exclusion columns pre-equilibrated with saline+1% human serum albumin, and were compared with the column elution of 90 μL (488 nCi/8.64 nmol) of [^225Ac]Proteus-DOTA only. Elution fractions were counted on the gamma-counter using an open window setting.
This was done by mixing the BsAb (˜210 kD) in slight molar excess to [^225Ac]Proteus-DOTA (9.6 nmol of C825/8.6 nmol of [^225Ac]Proteus-DOTA), followed by incubation at room temperature for 1 hour.

[4] = n = 3, listed as [^225Ac] Proteus-DOTA

## O=C([O-])CN1CCN(CC(=O)[O-])CCN(CC(=O)NCCOCCOCCOCCOCCNC(=S)Nc2ccc(CC3CN(CC(=O)[O-])CCN(CC(=O)[O-])CCN(CC(=O)[O-])CCN3CC(=O)[O-])cc2)CCN(CC(=O)[O-])CC1.[225Ac+3].[Lu+3] (stereo not shown) [[^225Ac]Proteus-DOTA]
[1]
  uptake in all assayed tissues: ≤ 2 % ID/g
[1]; BT-474 xenograft, i.v., n=3
  tumor accumulation: 0.50±0.34 % ID/g
[2]; n = 3
  Blood uptake: 0.31±0.54 % ID/g
  Bone uptake: 0.45 ± 0.79 % ID/g
  Kidneys uptake: 0.63±0.41 % ID/g
  Large Intestine uptake: 0.02 ± 0.02 % ID/g
  Liver uptake: 0.04±0.06 % ID/g
  Muscle uptake: 0.98 ± 0.91 % ID/g
  Small Intestine uptake: 0.16 ± 0.26 % ID/g
  Spleen uptake: 0.04 ± 0.06 % ID/g
  Stomach uptake: 0.24 ± 0.38 % ID/g
[2]; [4]
  Blood uptake: 0.31 ± 0.54 % ID/g
  Kidneys uptake: 0.63 ± 0.41 % ID/g
  Liver uptake: 0.01 ± 0.02 % ID/g
[3]; PD-10 size-exclusion column
  remaining activity recovered in elution fractions between 4.6-7.1 mL: 90%
[3]; PD-10 size-exclusion column after 1 h mixing at room temperature
  recovered ^225Ac-activity eluting within the first 4.1 mL: 9.3%
